{"source": "patent US9381224B2", "about": "“Plant based formulation for the prevention and management of metabolic syndrome and cardiovascular disease mortality risk” (priority 2014, dated 2016)", "test_system": "Metabolic Syndrome cases", "assay": "Clinical study in diagnosed Metabolic Syndrome cases", "assay_type": "in vivo, human", "method": "The study population consisted of 128 diagnosed Metabolic Syndrome cases (76 Men and 52 Women), aged 52.81±9.68 years at study entry. The cases were diagnosed as per criteria given by WHO for classification and diagnosis of Metabolic Syndrome.\nAfter preliminary screening the subjects showing association with 3 or more than 3 above factors were selected. The clinical trial was conducted in three groups—\n44 cases were treated with Ayurvedic formulation.\nBody mass index (BMI) was calculated following formula {weight (kg)÷ height (m2)} and anthropometer was used for circumference measurement. Lipid profile including triglyceride was estimated by standard laboratory kits. TNF-[…], interleukin-6 was measured by ELISA kit, adiponectin by radioimmunoassay kit. CRP by kit for quantitative nephelometric determination of CRP in human serum or plasma by Turbox/Turbox analyzer and ELISA activity assay kit for Leptin level. Subjects suffering from any other disease known to affect the study parameters were excluded from the series. Upon recruitment all subjects gave informed written consent.", "data": [{"molecule": "CCCCCCCCCCC[C@@H](C[C@@H]1OC(=O)[C@H]1CCCCCC)OC(=O)[C@H](CC(C)C)NC=O", "note": "[Conventional drug, Orlistat]", "values": [{"measurement": "HbA1c", "setting": "After 3 months", "value": 5.93, "unit": "%"}, {"measurement": "PAI-1", "setting": "After 3 months", "value": 37.42, "unit": "ng/mL"}, {"measurement": "tPA-1", "setting": "After 3 months", "value": 19.45, "unit": "ng/mL"}, {"measurement": "Adiponectin", "setting": "After 6 months", "value": 7.39, "unit": "µg/mL"}, {"measurement": "Apolipo (B)", "setting": "After 6 months", "value": 152.87, "unit": "mg/dL"}, {"measurement": "Diastolic blood pressure", "setting": "After 6 months", "value": 86.24, "unit": "mmHg"}, {"measurement": "Endothelin", "setting": "After 6 months", "value": 988.73, "unit": "pg/mL"}, {"measurement": "Fasting blood glucose", "setting": "After 6 months", "value": 108.42, "unit": "mg/dL"}, {"measurement": "HDL-c", "setting": "After 6 months", "value": 43.02, "unit": "mg/dL"}, {"measurement": "HbA1c", "setting": "After 6 months", "value": 5.24, "unit": "%"}, {"measurement": "Interleukin-6", "setting": "After 6 months", "value": 2.12, "unit": "pg/mL"}, {"measurement": "LDL-c", "setting": "After 6 months", "value": 114.32, "unit": "mg/dL"}, {"measurement": "Leptin", "setting": "After 6 months", "value": 25.73, "unit": "µg/L"}, {"measurement": "PAI-1", "setting": "After 6 months", "value": 32.98, "unit": "ng/mL"}, {"measurement": "Postprandial blood glucose", "setting": "After 6 months", "value": 179.45, "unit": "mg/dL"}, {"measurement": "Systolic blood pressure", "setting": "After 6 months", "value": 124.87, "unit": "mmHg"}, {"measurement": "TNF-α", "setting": "After 6 months", "value": 488.90, "unit": "pg/mL"}, {"measurement": "Total cholesterol", "setting": "After 6 months", "value": 216.92, "unit": "mg/dL"}, {"measurement": "Triglycerides", "setting": "After 6 months", "value": 287.93, "unit": "mg/dL"}, {"measurement": "hs CRP", "setting": "After 6 months", "value": 3.64, "unit": "mg/L"}, {"measurement": "tPA-1", "setting": "After 6 months", "value": 18.46, "unit": "ng/mL"}, {"measurement": "CD36", "setting": "Gender F, After 3 months", "value": 156.42, "unit": "ng/mL"}, {"measurement": "CD36", "setting": "Gender F, After 6 months", "value": 155.90, "unit": "ng/mL"}, {"measurement": "CD36", "setting": "Gender F, Initial", "value": 142.90, "unit": "ng/mL"}, {"measurement": "CD36", "setting": "Gender M, After 3 months", "value": 173.64, "unit": "ng/mL"}, {"measurement": "CD36", "setting": "Gender M, After 6 months", "value": 196.22, "unit": "ng/mL"}, {"measurement": "Adiponectin", "setting": "Initial", "value": 6.92, "unit": "µg/mL"}, {"measurement": "Apolipo (B)", "setting": "Initial", "value": 188.73, "unit": "mg/dL"}, {"measurement": "Diastolic blood pressure", "setting": "Initial", "value": 89.04, "unit": "mmHg"}, {"measurement": "Endothelin", "setting": "Initial", "value": 1286.93, "unit": "pg/mL"}, {"measurement": "Fasting blood glucose", "setting": "Initial", "value": 136.42, "unit": "mg/dL"}, {"measurement": "HDL-c", "setting": "Initial", "value": 41.62, "unit": "mg/dL"}, {"measurement": "HbA1c", "setting": "Initial", "value": 6.82, "unit": "%"}, {"measurement": "Interleukin-6", "setting": "Initial", "value": 2.25, "unit": "pg/mL"}, {"measurement": "LDL-c", "setting": "Initial", "value": 139.72, "unit": "mg/dL"}, {"measurement": "Leptin", "setting": "Initial", "value": 36.42, "unit": "µg/L"}, {"measurement": "PAI-1", "setting": "Initial", "value": 40.12, "unit": "ng/mL"}, {"measurement": "Postprandial blood glucose", "setting": "Initial", "value": 231.68, "unit": "mg/dL"}, {"measurement": "Systolic blood pressure", "setting": "Initial", "value": 136.68, "unit": "mmHg"}, {"measurement": "TNF-α", "setting": "Initial", "value": 622.45, "unit": "pg/mL"}, {"measurement": "Total cholesterol", "setting": "Initial", "value": 247.90, "unit": "mg/dL"}, {"measurement": "Triglycerides", "setting": "Initial", "value": 354.86, "unit": "mg/dL"}, {"measurement": "hs CRP", "setting": "Initial", "value": 4.93, "unit": "mg/L"}, {"measurement": "tPA-1", "setting": "Initial", "value": 21.23, "unit": "ng/mL"}]}]}
